One sequence from PMC7408493, “Implication of Opioid Receptors in the Antihypertensive Effect of a Novel Chicken Foot-Derived Peptide” (Biomolecules, 2020) can be followed below.

Ends that are not written are not given here.

The data set is described as follows: Peptide presence in plasma after oral administration. Type of data set: in vivo. To be noted: Wistar rats, 10 mg/kg bw oral, plasma at 0, 30 and 60 min, pooled n = 6, SPE extraction, UHPLC-MS/MS (limit of detection 0.05 ppb) and UHPLC-HRMS. On the procedure:
Male Wistar rats (17–20 weeks-old, weighing between 230 and 250 g) were obtained from Charles River Laboratories (Barcelona, Spain). Animals were maintained in pairs, at 22 °C with light/dark cycles of 12 h and were fed standard chow diet (AO4, Panlab, Barcelona, Spain) ad libitum during all the experiment. Animals were randomly divided and administered tap water (control group, n = 6) or 10 mg/kg body weight (bw) peptide ([…] group, n = 6) by gastric intubation after starvation of 12 h. The total volume of water or […] orally administered to the rats was 1 mL. […]
Solid-phase extraction (SPE): Plasma samples (150 µL) were mixed with 25 µL of IFV*[…] […] Eluted samples were dried in a speed-vac concentrator (Thermo Fisher, Waltham, Massachusetts), USA), reconstituted in 100 µL of water (0.1 % FA and 0.1 % BSA), and analyzed by UHPLC-MS/MS. […]
The obtained purified solutions from plasma and peptide digests G60 and D60 and from AP and BL chambers in Caco-2 experiment were analyzed using a UHPLC 1290 Infinity II Series coupled to a QqQ 6490 Series (Agilent Technologies, Santa Clara, CA, USA) for tandem mass experiments or a qTOF 6550 Series (Agilent Technologies) for high-resolution mass spectrometry experiments. […]

Turning to AVFQHNCQE, the “Presence of peptide or fragments in plasma” value is given as “neither the peptide nor their potential fragments were identified in the plasma samples”.
